# US7939537B2, “HIV integrase inhibitors” (Istituto Di Ricerche Di Biologia Molecolare P. Angeletti …, priority 2006, dated 2011)
# Tested on: HIV
# Experiment: Assay for inhibition of HIV replication (spread assay; acute HIV infection of T-lymphoid cells)
# Format: cell-based
# Conditions: Human immunodeficiency virus 1, tested up to 1 micromolar
# Description: Assay for Inhibition of HIV Replication
# Assays for the inhibition of acute HIV infection of T-lymphoid cells were conducted in accordance with Vacca, J. P. et al., Proc. Natl. Acad. Sci. USA 1994, 91: 4096. […] The compounds of Examples 6, 8, 9, 14, 15, 21-23 and 29-35 were also tested in the spread assay up to 1 micromolar, but specific IC95 values were not obtained; i.e., the IC95 values for these compounds are greater than 1 micromolar.
smiles,measurement,value
"O=C(NCc1ccc(F)cc1)c1nc2ccc(Br)cn2c(=O)c1O [Example 35, 7-bromo-N-(4-fluorobenzy1)-3-hydroxy-4-oxo-4H-pyrido[1,2-a]pyrimidine-2-carboxamide]",IC95,> 1000 nM
